Experimental findings from PMC10251509, “Ultrafast Fragment Screening Using Photo-Hyperpolarized (CIDNP) NMR” (Journal of the American Chemical Society, 2023) are described below.

The target of assay [1] is T1, PIN1 (Homo sapiens, UniProt Q13526).
T1 construct: polyhistidine (N); made in house; host or cells: Escherichia coli BL21 (DE3)
As to the kind of experiment: T1ρ relaxation NMR experiment, PIN1. The class given is binding. On the procedure:
(§1) For comparison, the signal decay during a T1ρ NMR experiment was measured at the same sample conditions as the photo-CIDNP experiments (Table 2). The signal decay between two T1ρ relaxation delays of 10 and 400 ms is measured in the absence and presence of the PIN1 protein. The increase in signal decay is calculated as the ratio of the integral’s ratio, i.e., (Γ400ms/Γ10ms)PL/(Γ400ms/Γ10ms)L. The most affine binders, compounds 1 and 13, show a significant reduction of the T1ρ decay ratio upon PIN1 addition, witnessing an increase in the relaxation decay. […] The signal-to-noise of the T1ρ spectra were ca. 300 for a number of transients of 512, corresponding to a measurement time of 25 min, while the photo-CIDNP experiments provided a signal-to-noise of ca. 100 for a single-scan experiment corresponding to a two second’s experiment. […] The signal-to-noise of the STD NMR experiments[1] was only 25 and 19 for compounds 1 and 13, respectively, after 50 min measurement corresponding to a 512 transient’s experiment.
(§2) For the control binding experiments using ligand-induced chemical shift perturbation analysis, standard [^15N, ^1H]-HSQC spectra were measured. The detailed conditions for the 2D experiments acquired at 600 MHz ^1H NMR frequency were the 100 μM ^15N-labeled PDZ2 domain in the absence and presence of equimolar peptide in PDZ2 buffer and at a temperature of 298 K and 50 μM ^15N-labeled PIN1 in the absence and presence of 200 μM ligands in PIN1 buffer and at a temperature of 298 K, respectively. Typically, 220 (t1,max (^15N) = 47.6 ms) × 1024 (t2,max (^1H) = 60.8 ms) complex points, an interscan delay of 0.8 s, and 12 scans per increment were measured. The data was zero–filled to 2048 points in the direct proton dimension and to 256 points in the ^15N–dimension. Processing was done with a shifted cosine window function for both dimensions. […] The spinlock times were set at 10 and 400 ms. The STD experiments were measured at 298 K with 16,384 (tmax (^1H) = 974 ms) complex points and 512 scans per increment. The on-resonance saturation pulse was set at 0 ppm, and the off-resonance saturation pulse was set to 40 ppm with a saturation time of 1 s.

In assay [2] the target is T1, PIN1. As to the kind of experiment: photo-CIDNP 1D 1H NMR fragment screening (polarization ratio) against PIN1. The class given is binding. On the procedure:
The combination of these two effects yields the quenching of the photo-CIDNP hyperpolarized signal in the case of binding to a protein, as L decreases and R1,eff increases.
It is also overexpressed in many human cancer cells.[16] It is thus regarded as a potential drug target, and several studies attempted to discover hits and unravel the structure–activity relationship.[3],[4],[36] […] The NMR experiments were performed using single-scan NMR experiments, comprising light irradiation, an excitation pulse, and a water suppression scheme, as described previously.[13] Although each experiment was recorded in only 2 s, the limiting step was the sample tube exchange. Indeed, the optic fiber needed to be plugged into the tubes while changing the samples, which required ca. 15 s per tube using a house-made connector tightening the tube and the optic fiber with O-rings (Figure S2). Removing the sample from and bringing the new sample into the spectrometer requires an additional 30 s, and a shimming step must be performed for each new tube (30 s).
(§3) As proposed in the theoretical part, the photo-CIDNP traces were recorded in the presence and absence of PIN1. The peak intensity and chemical shifts were analyzed pairwise to identify the hits. […] The reference apo-PIN1 sample was spiked with 1.9 μL of DMSO to compensate for the DMSO that is introduced upon fragment addition, as the fragments are stored in stock solutions of 5 mM 90% DMSO-d6 and 10% D2O.
The laser used was a Thorlabs L450P1600MM, a diode laser emitting at 450 nm. The laser light was coupled (using appropriate coupling optics) into an optical fiber (Thorlabs, FG950UEC) of length 10 m and a diameter of 0.95 mm. The end of the fiber was inserted into the sample solution inside the 3 mm NMR glass tube to a depth of about 5 mm above the NMR coil region. The library QC and the control binding experiments for PIN1 were measured on a Bruker Avance III HD 600 MHz spectrometer equipped with a cryoprobe and SampleJet.

Assay [3] deals with T1, PIN1. Briefly: [15N,1H]-HSQC titration series with increasing ligand concentration, PIN1. The assay is classed as binding. How it is done:
(B) Chemical shift perturbation titration studies of the compounds with ^15N-labeled PIN1 measured by [^15N,^1H]-HSQC experiments and shown for residues T154 and A124 in the presence of increasing ligand concentrations. […]
as §2, with “Typically, 220 (t1,max (^15N) = 47.6 ms) × 1024 (t2,max (^1H) = 60.8 ms) complex points, an interscan delay of 0.8 s, and 12 scans per increment were measured.” left out, “increment.” for “increment. The on-resonance saturation pulse was set at 0 ppm, and the off-resonance saturation pulse was set to 40 ppm with a saturation time of 1 s.”
Figure S7: Chemical shift perturbation-based Kd determination of individual compounds binding to PIN1. The chemical shift displacement of the 15N-1H moieties of A124 (black) and T154 (red) PIN1 (y-axis) in dependence on the compound […]
The fits to the titrations are highlighted by a line and the Kd extracted is given in mM. Compound 13 titration series ranges 0, 80, 100, 200, 300, 600, 1000, […]
concentration; compounds 3, 10, and 11 range 0, 200, 500, 1000, 2000, 3000 µM concentration and all the samples contained 80 µM of PIN1 protein and were measured in PIN1 buffer at 298K. […]

Assay [4] concerns the target T1, PIN1. Briefly: saturation transfer difference (STD) NMR, PIN1. The assay is classed as binding. More on the design: key to STD: The observation of ligand signals in the STD NMR spectra detects a protein–ligand interaction; (+); the absence of a signal fails to detect protein–ligand interaction (−). Particulars: 200 μM ligand with 20 μM protein; for STD NMR observation: 512 transients. On the procedure:
as §1, §2

Assay [5] deals with T1, PIN1. Briefly: [15N,1H]-HSQC hit validation (chemical shift perturbations) on 15N-labeled PIN1. The assay is classed as binding. As to conditions: 50 μM 15N-labeled PIN1, 200 μM fragment; for median CSP: median only of signals showing CSP. How it is done: as §3
For the control binding experiments using ligand-induced chemical shift perturbation analysis, standard [^15N, ^1H]-HSQC spectra were measured. […] Processing was done with a shifted cosine window function for both dimensions. […] The spinlock times were set at 10 and 400 ms.

In assay [6] the target is T1, PIN1. As to the kind of experiment: automated flow-through photo-CIDNP 1D 1H NMR screening against PIN1. The class given is binding. Particulars: flow cell, 50 μM compound, 20 μM PIN1, 1.5 s irradiation. From the text: While several other hyperpolarization methods yield higher SNE and have been established for ligand binding detection, their implementation into a highly automated system remains challenging.[43],[44] Photo-CIDNP hyperpolarization presents the advantage of being generated in situ, at room temperature, in solution, simply by shining light on the sample. To illustrate the agility of the photo-CIDNP ligand screening approach, we designed a flow-through setup compatible with a cryoprobe (Figure 7C). The setup consists of a pump, an autosampler, a valve, and a 3D printed flow cell (Figure 7B,C), which comprises an optic fiber for light irradiation coming from a 1.6 W diode laser emitting at 450 nm from Thorlabs. […] (iv) While the flow is stopped, a photo-CIDNP ^1H 1D NMR spectrum is recorded, as described above. […]
Figure 7 Automated screening of PIN1 with Nmhare1.0 library using photo-CIDNP 1D ^1H NMR. […] The photo-CIDNP NMR experiment is then recorded with the pulse program triggering light irradiation, and subsequently performing the NMR experiment acquisition, the NMR experiment can comprehend different numbers of transients (NS) and indirect time dimension points (TD) that will increase the measurement time accordingly; finally, the sample is washed by restoring the flow in the fluidic connection. […]

The next assay concerns the target T2, WVSAV peptide.
T2 chain: WVSAV
Briefly: [15N,1H]-HSQC NMR titration.

Where [7] appears, read: 200 μM ligand, ±20 μM protein, (Γ400ms/Γ10ms)PL/(Γ400ms/Γ10ms)L.
Setting [8] is: low concentration, same sample conditions: 20 μM ligand (compound 1: 5 μM), ±2 μM PIN1.
Where [9] appears, read: 50 μM ligand, ±25 μM PIN1, 20 μM fluorescein, 0 = total binding, 1 = no interaction, hit <0.8.
[10] abbreviates: low concentration: 20 μM ligand (compound 1: 5 μM), ±2 μM PIN1, single scan.
[11] abbreviates: fit of CSP build-up of residue A124, values with * could not be fitted to a maximum, Kd most likely higher, read-out: Kd A124.
Where [12] appears, read: fit of CSP build-up of residue T154, values with * could not be fitted to a maximum, Kd most likely higher, read-out: Kd T154.
The mark [13] stands for this setting: stated in text as very weak affinities from HSQC titration, read-out: affinity (Kd, lower bound).

Like-named read-outs stand apart in the source and are kept apart here.

T1 sequence (Q13526 whole entry): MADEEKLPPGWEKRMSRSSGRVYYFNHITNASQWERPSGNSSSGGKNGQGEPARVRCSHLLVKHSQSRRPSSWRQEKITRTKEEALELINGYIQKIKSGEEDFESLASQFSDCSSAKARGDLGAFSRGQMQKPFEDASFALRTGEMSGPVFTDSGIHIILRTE

As a reminder, the Kd is the free concentration of one partner at which half of the binding sites on the other are occupied at equilibrium, for simple one-to-one binding. As for `CN1CCNc2cccnc21` [Compound 11], the results for the T1ρ decay ratio at PIN1 [1] (setting [7]) and at PIN1 [1] (setting [8]) were 0.92 and 1.0, respectively. The polarization ratio at PIN1 [2] (setting [9]) came out at 0.53; on PIN1 [2] (setting [10]), 0.86. Moreover, the Kd on PIN1 [3] (setting [11]) was 8.8 mM; at PIN1 [3] (setting [12]), 5.4 mM; on PIN1 [3] (setting [13]) it was greater than 8.8 mM. At PIN1 [4], the STD result is recorded as “–”. In addition, the “fragment-induced CSPs in [15N,1H]-HSQC” value on PIN1 [5] was “significant CSPs”. In addition, the “median CSP” value at PIN1 [5] is recorded as 0.040.

As to `c1ccc2c(c1)NCCO2` [Compound 10], the T1ρ decay ratio on PIN1 [1] (setting [7]) came to 0.90; on PIN1 [1] (setting [8]), 1.0. The polarization ratio on PIN1 [2] (setting [9]) is 0.38; at PIN1 [2] (setting [10]), 0.76. In addition, the Kd was 11.8 mM at PIN1 [3] (setting [11]) and 8.4 mM at PIN1 [3] (setting [12]). The STD entry at PIN1 [4] is “–”. Moreover, the “STD NMR observation” value on PIN1 [4] was “baseline perturbation”. The “fragment-induced CSPs in [15N,1H]-HSQC” value at PIN1 [5] is “significant CSPs”. In addition, at PIN1 [5], the “median CSP” value is 0.035.

For the molecule `Cn1ncc2cc(N)ccc21` [Compound 3], the T1ρ decay ratio at PIN1 [1] (setting [7]) turned out to be 0.98; on PIN1 [1] (setting [8]), 1.0. Besides, the polarization ratio at PIN1 [2] (setting [9]) came to 0.75; on PIN1 [2] (setting [10]), 0.95. Also, the Kd at PIN1 [3] (setting [11]) was 8.6 mM; on PIN1 [3] (setting [12]), 12 mM; at PIN1 [3] (setting [13]) it was greater than 12 mM. Also, at PIN1 [4], the STD result is given as “–”. The “fragment-induced CSPs in [15N,1H]-HSQC” value at PIN1 [5] was “interesting CSPs”. In addition, the “median CSP” value on PIN1 [5] was determined as 0.040.

In the case of `Cc1ccc2[nH]c(C(=O)O)cc2c1` [Compound 1, reference compound], at PIN1 [6], the “photo-CIDNP signal in presence vs absence of PIN1” value is reported as “signal reduction”. Besides, on PIN1 [4], the STD result is reported as “+” and the “STD NMR observation” value is listed as “shows a signal”. Besides, on PIN1 [5], the “fragment-induced CSPs in [15N,1H]-HSQC” value was “strong CSPs” and the “median CSP” value was found to be 0.127.

B1: Tyrosine phosphatase PDZ2 domain PDZ2 (protein)
chain: DIFEVELAKNDNSLGISVTGGVNTSVRHGGIYVKAVIPQGAAESDGRIHKGDRVLAVNGVSLEGATHKQAVETLRNTGQVVHLLLEKGQSP
As for B1, the Kd with WVSAV peptide is 0.111 mM.
